Where two headings read alike, the source gives them in different places.
How the values were obtained:
[1] = Inhibition of decarboxylation reaction in unheated cashew nut shell liquid formulation (silica), phosphoric acid / phosphate; type: physicochemical; conditions: 80° C.; for Anacardic Acid 15:1 Composition (%) / Anacardic Acid 15:1 concentration / Anacardic Acid 15:2 Composition (%) / Anacardic Acid 15:2 concentration / Anacardic Acid 15:3 Composition (%) / Anacardic Acid 15:3 concentration / Cardanol 15:1 Composition (%) / Cardanol 15:1 concentration / Cardanol 15:2 Composition (%) / Cardanol 15:2 concentration / Cardanol 15:3 Composition (%) / Cardanol 15:3 concentration: 10% by weight in unheated CNSL, mixed with silica; for inhibition of the decarboxylation: formulation with silica, 10% by weight, 3 days
Method: 10 g of silica (Sipernat 22) was placed into each of beakers. […] The sodium dihydrogen phosphate was added as an aqueous solution.

[2] = 80° C.; for Anacardic Acid 15:1 Composition (%) / Anacardic Acid 15:1 concentration / Anacardic Acid 15:2 Composition (%) / Anacardic Acid 15:2 concentration / Anacardic Acid 15:3 Composition (%) / Anacardic Acid 15:3 concentration / Cardanol 15:1 Composition (%) / Cardanol 15:1 concentration / Cardanol 15:2 Composition (%) / Cardanol 15:2 concentration / Cardanol 15:3 Composition (%) / Cardanol 15:3 concentration: 10% by weight in unheated CNSL; for inhibition of the decarboxylation: 10% by weight, three days
[3] = Inhibition of decarboxylation reaction in feed; conditions: 10% by weight in unheated CNSL, 80° C.; for Anacardic Acid 15:1 Composition (%) / Anacardic Acid 15:1 concentration / Anacardic Acid 15:2 Composition (%) / Anacardic Acid 15:2 concentration / Anacardic Acid 15:3 Composition (%) / Anacardic Acid 15:3 concentration / Cardanol 15:1 Composition (%) / Cardanol 15:1 concentration / Cardanol 15:2 Composition (%) / Cardanol 15:2 concentration / Cardanol 15:3 Composition (%) / Cardanol 15:3 concentration: silica composition 1% by weight in feed;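 also: ethyl acetate extract of test feed analysed by reversed-phase C18 HPLC with absorbance detection at 280 nm, giving component composition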
Method: The analysis was carried out under the conditions of a solvent composition of acetonitrile: water: acetic acid =80:20:1 (based on volume), a flow rate of 2 ml/min, a temperature of 25° C., and an absorbance of 280 nm.
Samples were taken from the beakers after 3 days and analyzed for composition by HPLC.
For HPLC analysis, soluble fractions of the test feed was extracted with ethyl acetate and then filtered and dried to concentrate it to 5 mg/ml.

SMILES: O=P([O-])(O)O.[Na+] [Sodium Dihydrogen Phosphate, sodium dihydrogen phosphate]
- Anacardic Acid 15:1 Composition (%) ([1]; Day 0): 40.20%
- Anacardic Acid 15:1 concentration ([1]; Day 0): 563.78 ppm
- Anacardic Acid 15:2 Composition (%) ([1]; Day 0): 14.00%
- Anacardic Acid 15:2 concentration ([1]; Day 0): 196.40 ppm
- Anacardic Acid 15:3 Composition (%) ([1]; Day 0): 32.21%
- Anacardic Acid 15:3 concentration ([1]; Day 0): 451.72 ppm
- Cardanol 15:1 Composition (%) ([1]; Day 0): 5.74%
- Cardanol 15:1 concentration ([1]; Day 0): 80.56 ppm
- Cardanol 15:2 Composition (%) ([1]; Day 0): 2.45%
- Cardanol 15:2 concentration ([1]; Day 0): 34.39 ppm
- Cardanol 15:3 Composition (%) ([1]; Day 0): 5.39%
- Cardanol 15:3 concentration ([1]; Day 0): 75.66 ppm
- Anacardic Acid 15:1 Composition (%) ([1]; Day 3): 32.90%
- Anacardic Acid 15:1 concentration ([1]; Day 3): 502.26 ppm
- Anacardic Acid 15:2 Composition (%) ([1]; Day 3): 11.28%
- Anacardic Acid 15:2 concentration ([1]; Day 3): 172.11 ppm
- Anacardic Acid 15:3 Composition (%) ([1]; Day 3): 25.93%
- Anacardic Acid 15:3 concentration ([1]; Day 3): 395.86 ppm
- Cardanol 15:1 Composition (%) ([1]; Day 3): 13.16%
- Cardanol 15:1 concentration ([1]; Day 3): 200.81 ppm
- Cardanol 15:2 Composition (%) ([1]; Day 3): 5.23%
- Cardanol 15:2 concentration ([1]; Day 3): 79.82 ppm
- Cardanol 15:3 Composition (%) ([1]; Day 3): 11.50%
- Cardanol 15:3 concentration ([1]; Day 3): 175.60 ppm
- inhibition of the decarboxylation [1]: moderate inhibition
- Anacardic Acid 15:1 Composition (%) ([2]; Day 0): 39.93%
- Anacardic Acid 15:1 concentration ([2]; Day 0): 1103 ppm
- Anacardic Acid 15:2 Composition (%) ([2]; Day 0): 14.10%
- Anacardic Acid 15:2 concentration ([2]; Day 0): 389 ppm
- Anacardic Acid 15:3 Composition (%) ([2]; Day 0): 32.43%
- Anacardic Acid 15:3 concentration ([2]; Day 0): 896 ppm
- Cardanol 15:1 Composition (%) ([2]; Day 0): 5.46%
- Cardanol 15:1 concentration ([2]; Day 0): 151 ppm
- Cardanol 15:2 Composition (%) ([2]; Day 0): 2.52%
- Cardanol 15:2 concentration ([2]; Day 0): 70 ppm
- Cardanol 15:3 Composition (%) ([2]; Day 0): 5.55%
- Cardanol 15:3 concentration ([2]; Day 0): 153 ppm
- Anacardic Acid 15:1 Composition (%) ([2]; Day 3): 30.94%
- Anacardic Acid 15:1 concentration ([2]; Day 3): 964 ppm
- Anacardic Acid 15:2 Composition (%) ([2]; Day 3): 10.81%
- Anacardic Acid 15:2 concentration ([2]; Day 3): 337 ppm
- Anacardic Acid 15:3 Composition (%) ([2]; Day 3): 24.87%
- Anacardic Acid 15:3 concentration ([2]; Day 3): 774 ppm
- Cardanol 15:1 Composition (%) ([2]; Day 3): 14.32%
- Cardanol 15:1 concentration ([2]; Day 3): 446 ppm
- Cardanol 15:2 Composition (%) ([2]; Day 3): 5.95%
- Cardanol 15:2 concentration ([2]; Day 3): 185 ppm
- Cardanol 15:3 Composition (%) ([2]; Day 3): 13.10%
- Cardanol 15:3 concentration ([2]; Day 3): 408 ppm
- inhibition of the decarboxylation [2]: moderate inhibition

SMILES: O=P(O)(O)O [Phosphoric Acid, phosphoric acid]
- Anacardic Acid 15:1 Composition (%) ([1]; Day 0): 40.20%
- Anacardic Acid 15:1 concentration ([1]; Day 0): 563.78 ppm
- Anacardic Acid 15:2 Composition (%) ([1]; Day 0): 14.00%
- Anacardic Acid 15:2 concentration ([1]; Day 0): 196.40 ppm
- Anacardic Acid 15:3 Composition (%) ([1]; Day 0): 32.21%
- Anacardic Acid 15:3 concentration ([1]; Day 0): 451.72 ppm
- Cardanol 15:1 Composition (%) ([1]; Day 0): 5.74%
- Cardanol 15:1 concentration ([1]; Day 0): 80.56 ppm
- Cardanol 15:2 Composition (%) ([1]; Day 0): 2.45%
- Cardanol 15:2 concentration ([1]; Day 0): 34.39 ppm
- Cardanol 15:3 Composition (%) ([1]; Day 0): 5.39%
- Cardanol 15:3 concentration ([1]; Day 0): 75.66 ppm
- Anacardic Acid 15:1 Composition (%) ([1]; Day 3): 38.30%
- Anacardic Acid 15:1 concentration ([1]; Day 3): 496.13 ppm
- Anacardic Acid 15:2 Composition (%) ([1]; Day 3): 13.34%
- Anacardic Acid 15:2 concentration ([1]; Day 3): 172.83 ppm
- Anacardic Acid 15:3 Composition (%) ([1]; Day 3): 30.69%
- Anacardic Acid 15:3 concentration ([1]; Day 3): 397.52 ppm
- Cardanol 15:1 Composition (%) ([1]; Day 3): 7.46%
- Cardanol 15:1 concentration ([1]; Day 3): 96.68 ppm
- Cardanol 15:2 Composition (%) ([1]; Day 3): 3.19%
- Cardanol 15:2 concentration ([1]; Day 3): 41.27 ppm
- Cardanol 15:3 Composition (%) ([1]; Day 3): 7.01%
- Cardanol 15:3 concentration ([1]; Day 3): 90.79 ppm
- inhibition of the decarboxylation [1]: significant inhibition
- Anacardic Acid 15:1 Composition (%) ([2]; Day 0): 32.73%
- Anacardic Acid 15:1 concentration ([2]; Day 0): 978 ppm
- Anacardic Acid 15:2 Composition (%) ([2]; Day 0): 18.69%
- Anacardic Acid 15:2 concentration ([2]; Day 0): 559 ppm
- Anacardic Acid 15:3 Composition (%) ([2]; Day 0): 42.99%
- Anacardic Acid 15:3 concentration ([2]; Day 0): 1285 ppm
- Cardanol 15:1 concentration ([2]; Day 0): 46 ppm
- Cardanol 15:2 Composition (%) ([2]; Day 0): 1.26%
- Cardanol 15:2 concentration ([2]; Day 0): 38 ppm
- Cardanol 15:3 Composition (%) ([2]; Day 0): 2.78%
- Cardanol 15:3 concentration ([2]; Day 0): 83 ppm
- Anacardic Acid 15:1 Composition (%) ([2]; Day 3): 32.55%
- Anacardic Acid 15:1 concentration ([2]; Day 3): 968 ppm
- Anacardic Acid 15:2 Composition (%) ([2]; Day 3): 18.61%
- Anacardic Acid 15:2 concentration ([2]; Day 3): 554 ppm
- Anacardic Acid 15:3 Composition (%) ([2]; Day 3): 42.80%
- Anacardic Acid 15:3 concentration ([2]; Day 3): 1273 ppm
- Cardanol 15:1 concentration ([2]; Day 3): 46 ppm
- Cardanol 15:2 Composition (%) ([2]; Day 3): 1.41%
- Cardanol 15:2 concentration ([2]; Day 3): 42 ppm
- Cardanol 15:3 Composition (%) ([2]; Day 3): 3.10%
- Cardanol 15:3 concentration ([2]; Day 3): 92 ppm
- inhibition of the decarboxylation [2]: significant inhibition
- stability of the shell liquid in the feed (progress of the decarboxylation) ([3]; in feed, 3 days): stable in the feed without progress of the decarboxylation
- Anacardic Acid 15:1 Composition (%) ([3]; Day 0): 40.28%
- Anacardic Acid 15:1 concentration ([3]; Day 0): 363.92 ppm
- Anacardic Acid 15:2 Composition (%) ([3]; Day 0): 13.76%
- Anacardic Acid 15:2 concentration ([3]; Day 0): 124.28 ppm
- Anacardic Acid 15:3 Composition (%) ([3]; Day 0): 33.11%
- Anacardic Acid 15:3 concentration ([3]; Day 0): 299.13 ppm
- Cardanol 15:1 Composition (%) ([3]; Day 0): 5.39%
- Cardanol 15:1 concentration ([3]; Day 0): 48.69 ppm
- Cardanol 15:2 Composition (%) ([3]; Day 0): 2.31%
- Cardanol 15:2 concentration ([3]; Day 0): 20.83 ppm
- Cardanol 15:3 Composition (%) ([3]; Day 0): 5.15%
- Cardanol 15:3 concentration ([3]; Day 0): 46.52 ppm
- Anacardic Acid 15:1 Composition (%) ([3]; Day 3): 39.75%
- Anacardic Acid 15:1 concentration ([3]; Day 3): 345.72 ppm
- Anacardic Acid 15:2 Composition (%) ([3]; Day 3): 13.57%
- Anacardic Acid 15:2 concentration ([3]; Day 3): 118.06 ppm
- Anacardic Acid 15:3 Composition (%) ([3]; Day 3): 32.67%
- Anacardic Acid 15:3 concentration ([3]; Day 3): 284.18 ppm
- Cardanol 15:1 Composition (%) ([3]; Day 3): 5.88%
- Cardanol 15:1 concentration ([3]; Day 3): 51.13 ppm
- Cardanol 15:2 Composition (%) ([3]; Day 3): 2.51%
- Cardanol 15:2 concentration ([3]; Day 3): 21.87 ppm
- Cardanol 15:3 Composition (%) ([3]; Day 3): 5.62%
- Cardanol 15:3 concentration ([3]; Day 3): 48.85 ppm

Reference: US20130216666A1, “CASHEW NUT SHELL LIQUID WITH IMPROVED STABILITY” (IDEMITSU KOSAN CO., LTD., priority 2010, published 2013)
